Experimental data taken from ChEMBL document CHEMBL2176966, “Discovery of 6,7-dihydro-5H-pyrrolo[2,3-a]pyrimidines as orally available G protein-coupled receptor 119 agonists” (J Med Chem, 2012).
Active and inactive are the calls of the source. No cut-off for these calls is given here.

tested on: Rattus norvegicus; test: Dose normalized AUC (0 to 24 hrs) in rat at 30 mg/kg; type: ADME, organism-based; parameters: dose 30 mg/kg; settings: in vivo

AUC/dose | Compound
> 1 µg·h/mL | CC(C)OC(=O)N1CCC(Oc2ncnc3c2CCN3c2ccc(C#N)cc2F)CC1

target: T1, Glucose-dependent insulinotropic receptor (Homo sapiens, UniProt Q8TDV5); test: Agonist activity at human GPR119 receptor expressed in CHO-K1 cells co-expressing 6CRE-luciferase gene after 5 hrs by luciferase reporter gene assay; type: functional, cell-based; settings: cho-k1
T1 sequence (Q8TDV5 whole entry): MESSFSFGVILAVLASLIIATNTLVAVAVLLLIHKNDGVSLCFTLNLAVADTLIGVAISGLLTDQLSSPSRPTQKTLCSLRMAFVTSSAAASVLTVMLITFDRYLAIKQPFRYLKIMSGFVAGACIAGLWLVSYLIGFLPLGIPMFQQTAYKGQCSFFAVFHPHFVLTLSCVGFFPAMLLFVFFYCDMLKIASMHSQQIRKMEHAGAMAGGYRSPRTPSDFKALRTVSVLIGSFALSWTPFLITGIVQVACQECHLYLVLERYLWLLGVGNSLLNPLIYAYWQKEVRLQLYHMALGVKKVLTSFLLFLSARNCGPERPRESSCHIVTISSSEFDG

pEC50 | Compound
< 5 | CC(C)OC(=O)N1CCC(Oc2ncnc3c2CC(C)N3c2ccc(S(C)(=O)=O)cc2F)CC1 (single isomer, unassigned; (+))

same assay, conditions: read-out: EC50

EC50 | Compound
200 nM | O=[N+]([O-])c1c(Nc2ccc(-n3cncn3)cc2)ncnc1N1CCC(Sc2ccccn2)CC1

same assay, conditions: read-out: pEC50 (converted)

Compound | EC50
CC(C)OC(=O)N1CCC(Oc2ncnc3c2CCN3c2ccc(-c3cccn3C)cc2F)CC1 | 158 nM
CC(C)(C)OC(=O)N1CCC(Oc2cccc3c2ccn3-c2ccc(S(C)(=O)=O)cc2)CC1 | 631 nM
CC(C)OC(=O)N1CCC(N(C)c2ncnc3c2CCN3c2ccc(S(C)(=O)=O)cc2F)CC1 | 631 nM
Cc1nc(OC2CCN(c3nc(C(C)C)no3)CC2)c2c(n1)N(c1ccc(S(C)(=O)=O)cc1F)CC2 | 251 nM
N#CN1CCC(O)CC1 | 316 nM
CC(C)OC(=O)N1CCC(Oc2ncnc3c2CCN3c2ccc(F)cn2)CC1 | > 10000 nM
CC(C)OC(=O)N1CCC(Oc2cccc3c2CCN3c2ccc(S(C)(=O)=O)cc2)CC1 | 501 nM
CC(C)c1noc(N2CCC(O)CC2)n1 | 50.1 nM
CC(C)OC(=O)N1CCC(S(=O)(=O)c2ncnc3c2CCN3c2ccc(S(C)(=O)=O)cc2F)CC1 | > 10000 nM
CC(C)OC(=O)N1CCC(Oc2ncnc3c2CCN3c2ccc(C#N)c(F)c2)CC1 | 398 nM
CC(C)OC(=O)N1CCC(Oc2ncnc3c2CCN3c2ccc(S(=O)(=O)N(C)C)cc2)CC1 | 501 nM
CC(C)OC(=O)N1CCC(Oc2ncnc3c2CC(C)N3c2ccc(S(C)(=O)=O)cc2F)CC1 (single isomer, unassigned; (-)) | > 10000 nM
Cc1nc(OC2CCN(C(=O)OC(C)(C)C)CC2)c2c(n1)N(c1ccc(S(C)(=O)=O)cc1F)CC2 | 126 nM
CC(C)OC(=O)N1CCC(Oc2ncnc3c2CCN3c2ccc(-c3nccs3)cc2F)CC1 | 79.4 nM
CC(C)OC(=O)N1CCC(Oc2cccc3c2CCN3c2ccc(S(C)(=O)=O)cc2F)CC1 | 1000 nM
CNc1nc(OC2CCN(C(=O)OC(C)C)CC2)c2c(n1)N(c1ccc(S(C)(=O)=O)cc1F)CC2 | > 10000 nM
CC(C)OC(=O)N1CCC(Oc2ncnc3c2CCN3c2ccc(S(C)(=O)=O)nc2)CC1 | 251 nM
CC(C)OC(=O)N1CCC(Oc2ncnc3c2CCN3c2ccc(S(C)(=O)=O)cn2)CC1 | 126 nM
CC(C)OC(=O)N1CCC(Oc2ncnc3c2CCN3c2ccc(C#N)cn2)CC1 | 794 nM
Cc1ncccc1N1CCc2c(OC3CCN(C(=O)OC(C)C)CC3)ncnc21 | > 10000 nM
CC(C)(C)OC(=O)N1CCC(Oc2cccc3c2CCN3c2ccc(S(C)(=O)=O)cc2)CC1 | 158 nM
CC(C)c1noc(N2CCC(Oc3ncnc4c3CCN4c3ccc(S(C)(=O)=O)cc3F)CC2)n1 | 79.4 nM

More lines, now with the values ahead:

EC50 | Compound
126 nM | CC(C)OC(=O)N1CCC(Oc2ncnc3c2CCN3c2ccc(S(C)(=O)=O)cc2)CC1
158 nM | CC(C)OC(=O)N1CCC(Oc2ncnc3c2CCN3c2ccc(S(C)(=O)=O)c(F)c2)CC1
2000 nM | CS(=O)(=O)c1ccc(N2CCc3c(OC4CCN(C5=NCCCN5)CC4)ncnc32)c(F)c1
1580 nM | CCS(=O)(=O)N1CCC(Oc2ncnc3c2CCN3c2ccc(S(C)(=O)=O)cc2F)CC1
398 nM | CN(C)S(=O)(=O)N1CCC(Oc2ncnc3c2CCN3c2ccc(S(C)(=O)=O)cc2F)CC1
12.6 nM | CS(=O)(=O)c1ccc(N2CCc3c(OC4CCN(C(=S)Sc5ccccc5)CC4)ncnc32)c(F)c1
251 nM | CSC(=O)N1CCC(Oc2ncnc3c2CCN3c2ccc(S(C)(=O)=O)cc2F)CC1
316 nM | COC(=O)N1CCC(Oc2ncnc3c2CCN3c2ccc(S(C)(=O)=O)cc2F)CC1
794 nM | CC(C)OC(=O)N1CCC(Oc2nc(N)nc3c2CCN3c2ccc(S(C)(=O)=O)cc2F)CC1
50.1 nM | CC(C)OC(=O)N1CCC(Oc2ncnc3c2CCN3c2ccc([S@+](C)[O-])cc2F)CC1
31.6 nM | CCSC(=O)N1CCC(Oc2ncnc3c2CCN3c2ccc(S(C)(=O)=O)cc2F)CC1
63.1 nM | CC(C)OC(=O)N1CCC(Oc2ncnc3c2CCN3c2ccc(C#N)cc2F)CC1
398 nM | CSc1ccc(N2CCc3c(OC4CCN(C(=O)OC(C)C)CC4)ncnc32)c(F)c1
316 nM | COCCOC(=O)N1CCC(Oc2ncnc3c2CCN3c2ccc(S(C)(=O)=O)cc2F)CC1
2000 nM | CC(C)OC(=O)N1CCC(Nc2ncnc3c2CCN3c2ccc(S(C)(=O)=O)cc2F)CC1
1260 nM | CC(C)S(=O)(=O)N1CCC(Oc2ncnc3c2CCN3c2ccc(S(C)(=O)=O)cc2F)CC1
39.8 nM | CC(C)(C)COC(=O)N1CCC(Oc2ncnc3c2CCN3c2ccc(S(C)(=O)=O)cc2F)CC1
501 nM | CS(=O)(=O)c1ccc(N2CCc3c(OC4CCN(C(=O)OCCF)CC4)ncnc32)c(F)c1
100 nM | Cc1nc(OC2CCN(C(=O)OC(C)C)CC2)c2c(n1)N(c1ccc(S(C)(=O)=O)cc1F)CC2
20 nM | CC(C)(C)OC(=O)N1CCC(Oc2ncnc3c2CCN3c2ccc(S(C)(=O)=O)cc2F)CC1
251 nM | CCOC(=O)N1CCC(Oc2ncnc3c2CCN3c2ccc(S(C)(=O)=O)cc2F)CC1
50.1 nM | CCCCOC(=O)N1CCC(Oc2ncnc3c2CCN3c2ccc(S(C)(=O)=O)cc2F)CC1
25.1 nM | CC(C)COC(=O)N1CCC(Oc2ncnc3c2CCN3c2ccc(S(C)(=O)=O)cc2F)CC1
10 nM | CC(C)SC(=O)N1CCC(Oc2ncnc3c2CCN3c2ccc(S(C)(=O)=O)cc2F)CC1
> 10000 nM | CCN(CC)C(=O)CN1CCC(Oc2ncnc3c2CCN3c2ccc(S(C)(=O)=O)cc2F)CC1
100 nM | Cc1cc(S(C)(=O)=O)ccc1N1CCc2c(OC3CCN(C(=O)OC(C)C)CC3)ncnc21
631 nM | CC(C)OC(=O)N1CCC(Oc2ncnc3c2CCN3c2ccc([S@@+](C)[O-])cc2F)CC1
79.4 nM | CCCOC(=O)N1CCC(Oc2ncnc3c2CCN3c2ccc(S(C)(=O)=O)cc2F)CC1
79.4 nM | CC(C)OC(=O)N1CCC(Sc2ncnc3c2CCN3c2ccc(S(C)(=O)=O)cc2F)CC1

tested on: Rattus norvegicus; test: Antihyperglycemic activity in Wistar rat assessed as glucose excursion curve at 10 mg/kg, po by glucose tolerance test; type: functional; settings: not given

Compound | Activity
N#C[C@@H]1CCCN1C(=O)CNC12CC3CC(CC(O)(C3)C1)C2 | Active

tested on: not listed separately; test: AUC (0 to 24 hrs) in rat at 10 mg/kg; type: ADME, organism-based; parameters: time < 24 hr, dose 10 mg/kg; settings: plasma

AUC(0-t) at 24 h | Compound
500 ng·h/mL | CC(C)c1noc(N2CCC(Oc3ncnc4c3CCN4c3ccc(S(C)(=O)=O)cc3F)CC2)n1

tested on: Mus musculus; test: Dose normalized AUC (0 to 24 hrs) in mouse at 30 mg/kg; type: ADME, organism-based; parameters: dose 30 mg/kg; settings: in vivo

AUC/dose | Compound
0.04 µg·h/mL | CCc1cnc(N2CCC(Oc3ncnc4c3CCN4c3ccc(S(C)(=O)=O)cc3F)CC2)nc1
